Experimental data from patent publication US20200055891A1, “NOVEL PHOSPHOTRIAZOLE MRNA 5'-END CAP ANALOGS, COMPOSITION COMPRISING THE SAME, RNA MOLECULE INCORPORATING THE SAME, USES THEREOF AND METHOD OF SYNTHESIZING RNA MOLECULE, PROTEIN OR PEPTIDE” (UNIWERSYTET WARSZAWSKI, priority 2016, published 2020).
Read-outs that look alike come from different tables or passages of the source.

Assays:
[1] = biological target: T1, SP6 RNA polymerase (Enterobacteria phage SP6, UniProt P06221); assay: Capping efficiency: incorporation of cap analogues at the 5′ end of short transcripts by in vitro transcription; type: biochemical; details: 1.25 mM cap analogue, 0.125 mM GTP
T1 construct: purchased New England BioLabs
T1 sequence (P06221 1-874): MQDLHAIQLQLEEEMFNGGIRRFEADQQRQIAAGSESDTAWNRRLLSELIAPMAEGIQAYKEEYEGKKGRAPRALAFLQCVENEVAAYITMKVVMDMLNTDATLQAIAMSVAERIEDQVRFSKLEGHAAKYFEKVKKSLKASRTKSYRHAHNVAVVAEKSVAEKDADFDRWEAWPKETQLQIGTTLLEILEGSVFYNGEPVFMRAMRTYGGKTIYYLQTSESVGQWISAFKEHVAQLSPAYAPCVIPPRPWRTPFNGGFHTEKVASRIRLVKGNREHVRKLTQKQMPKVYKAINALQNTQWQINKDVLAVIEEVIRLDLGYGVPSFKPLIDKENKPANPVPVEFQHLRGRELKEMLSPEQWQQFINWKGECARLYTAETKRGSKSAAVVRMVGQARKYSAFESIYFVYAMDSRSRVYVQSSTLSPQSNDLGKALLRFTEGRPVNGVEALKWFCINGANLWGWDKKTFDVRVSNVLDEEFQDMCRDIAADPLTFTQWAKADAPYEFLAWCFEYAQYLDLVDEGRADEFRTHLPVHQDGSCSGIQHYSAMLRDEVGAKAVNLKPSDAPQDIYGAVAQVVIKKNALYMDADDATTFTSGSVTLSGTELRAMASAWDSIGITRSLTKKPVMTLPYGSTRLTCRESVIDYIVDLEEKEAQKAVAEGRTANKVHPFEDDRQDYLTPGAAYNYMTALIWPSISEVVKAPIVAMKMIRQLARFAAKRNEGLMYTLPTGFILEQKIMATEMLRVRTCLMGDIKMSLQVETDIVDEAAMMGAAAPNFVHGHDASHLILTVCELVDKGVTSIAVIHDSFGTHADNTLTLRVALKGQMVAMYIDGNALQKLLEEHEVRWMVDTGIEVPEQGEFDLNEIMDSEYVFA
Experimental: Prior to in vitro transcription annealing of a template was performed. DNA1 (SEQ ID NO: 1) and DNA2 (SEQ ID NO: 2) (20 μM each) were incubated in the presence of 4 mM Tris-HCl pH 8.0, 15 mM NaCl and 0.1 mM EDTA at 95° C. for 2 min and then at room temperature for 30 min. After 10-fold dilution the mixture was directly used for in vitro transcription.
The reaction was quenched by addition of 2 μl of 0.5 M EDTA pH 8.0 and purified with RNA Clean&Concentrator-5 kit (Zymo Research) to afford capped RNA1 (SEQ ID NO: 4) strands.
To reduce heterogeneity, each capped RNA1 (11.42 ng/μl, ca. 1 μM) was incubated in presence of 50 mM Tris-HCl pH 8.0, 50 mM MgCl2, RiboLock RNase Inhibitor (ThermoFisher Scientific) (2.0 U/μl) and DNA3 (SEQ ID NO: 3) (1 μM) at 37° C. for 1 h to afford RNA2 (SEQ ID NO: 5).^44 The reaction was stopped by freezing in liquid nitrogen and directly analyzed by PAGE (FIG. 3).
Relative bands intensity was determined using CLIQS v1.0 program.

[2] = tested on: Rabbit Reticulocyte Lysate; assay: Translation efficiency of capped firefly luciferase mRNA in Rabbit Reticulocyte Lysate System; type: biochemical; details: relative, m^7GpppG = 1
Experimental: The reaction was quenched by addition of 2 μl of 0.5 M EDTA pH 8.0 and purified with NucleoSpin RNA Clean-up XS kit (Macherey-Nagel) to afford luciferase-coding RNA strands capped with appropriate cap analogue.
For each capped luciferase-coding RNA four diluted solutions were prepared—3.0 ng/μl, 1.5 ng/μl, 0.75 ng/μl, 0.375 ng/μl. Translation studies were performed using Rabbit Reticulocyte Lysate System (Promega). 9 μl of a mixture containing Rabbit Reticulocyte Lysate (4 μl), Amino Acid Mixture Minus Leucine (0.05 μl of 1 mM solution), Amino Acid Mixture Minus Methionine (0.05 μl of 1 mM solution), potassium acetate (1.9 μl of 1 M solution), MgCl2 (0.4 μl of 25 mM solution) and 2.1 μl of water was incubated at 30° C. for 1 h after which 1 μl of appropriate luciferase-coding RNA solution was added and incubation of the reaction was continued at 37° C. for another hour. The reaction was stopped by freezing in liquid nitrogen.
Translation efficiency was determined using Luciferase Reporter System (Promega). The samples were defrosted just before the experiment. To every sample 50 μl of Luciferase Assay Reagent was added just before measurement of luminescence on Synergy H1 Microplate Reader (Bio Tek). The measurement were performed for every four samples independently due to low stability of luminescence signal. The results are presented on. FIG. 4 as proportions between regression coefficients of linear relationships between capped luciferase-coding RNA concentration in translation reaction (300 pg/μl, 150 pg/μl, 75 pg/μl, 37.5 pg/μl) and corresponding luminescence signal.

[3] = biological target: T2, eIF4E (Mus musculus, UniProt P63073); details: reference cap analogues, values from refs 42/43; cited from earlier work
T2 sequence (P63073 28-217 limits assumed): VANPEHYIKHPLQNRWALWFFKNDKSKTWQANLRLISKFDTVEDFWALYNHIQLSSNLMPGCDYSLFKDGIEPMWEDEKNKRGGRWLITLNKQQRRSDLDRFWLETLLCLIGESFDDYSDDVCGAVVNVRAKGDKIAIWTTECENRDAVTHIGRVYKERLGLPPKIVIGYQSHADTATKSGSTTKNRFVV

[4] = biological target: T2, eIF4E; assay: Association constants (KAS) of cap analogue-eIF4E complexes, fluorescence quenching titration; type: binding; details: 20° C., 50 mM Hepes/KOH pH 7.20, 100 mM KCl; weighted average of triplicate
Experimental: Association constants for cap analogue-eIF4E complexes were determined using fluorescence quenching titration method as described previously.^42 Measurements were performed using a quartz cuvette with optical path length of 4 mm for absorption and 10 mm for emission on LS-50B spectrofluorometer Perkin-Elmer Co. (Waltham, Mass., USA). Titration experiments were carried out at 20° C. in 50 mM Hepes/KOH buffer, pH 7.20 containing 100 mM KCl, 0.5 mM EDTA, and 1 mM DTT. During the experiment 1 μl aliquots of ligand solution was added to the 1400 μl of 0.1 μM protein solution. Protein fluorescence was monitored at 337 or 345 nm (excitation 280 or 295 nm, respectively). For data analysis fluorescence intensity correction was applied for sample dilution and inner filter effect. Association constants were determined by fitting theoretical dependence of fluorescence intensity on total ligand concentration. Each experiment was performed in triplicate, the association constants were calculated as weighted averages.

[5] = Hydrolysis in D2O seen in NMR spectra; type: physicochemical; details: dissolved in D2O just before NMR measurement; given if higher than 5%
Experimental: Some cap analogues hydrolyzed in D2O gradually. Although pure compounds (see HPLC profiles, Supporting Information 2) were dissolved in D2O just before measurements, the spectra indicated some level of hydrolysis. % of hydrolysis is provided along with compound characterization data, if higher than 5%.

Molecule: CO[C@H]1[C@@H](O)[C@H]([n+]2cn(C)c3c(=O)[nH]c(N)nc32)O[C@@H]1COP(=O)([O-])OP(=O)(O)OP(=O)(O)OC[C@H]1O[C@@H](n2cnc3c(=O)[nH]c(N)nc32)[C@H](O)[C@@H]1O [m2^7,3′-OGpppG, reference compound]
- Capping efficiency [1]: 83%
- Translation efficiency [2]: 1.526 ± 0.043
- KAS [3]: 10.2 ± 0.6^43 μM^−1

Molecule: Cn1c[n+]([C@@H]2O[C@H](COP(=O)(O)OP(=O)([O-])O)[C@@H](O)[C@H]2O)c2nc(N)[nH]c(=O)c21 [m^7GDP]
- KAS [3]: 20.4 ± 1.5^42 μM^−1

Molecule: C[n+]1cn([C@@H]2O[C@H](COP(=O)(O)NCCn3cc(P(=O)([O-])OP(=O)(O)OP(=O)(O)OC[C@H]4O[C@@H](n5cnc6c(=O)[nH]c(N)nc65)C(O)C4O)nn3)C(O)C2O)c2nc(N)[nH]c(=O)c21 (stereo partly shown) [m^7GpNHC2H4tpppG, m^7GpNHC2H4-triazole-pppG]
- Capping efficiency [1]: 57%
- Translation efficiency [2]: 0.103 ± 0.027
- KAS [4]: 3.10 ± 0.18 µM⁻¹
- hydrolysis in D2O [5]: 9%

Molecule: C[n+]1cn([C@@H]2O[C@H](COP(=O)([O-])OP(=O)(O)NCCn3cc(CCP(=O)(O)OP(=O)(O)OC[C@H]4O[C@@H](n5cnc6c(=O)[nH]c(N)nc65)[C@@H](O)C4O)nn3)C(O)[C@@H]2O)c2nc(N)[nH]c(=O)c21 (stereo partly shown) [m^7GppNHC2H4tC2H4ppG, m^7GppNHC2H4-triazole-C2H4ppG]
- Capping efficiency [1]: 30%
- Translation efficiency [2]: 0.239 ± 0.028
- hydrolysis in D2O [5]: 11%

Molecule: C[n+]1cn([C@@H]2O[C@H](COP(=O)(O)OP(=O)([O-])OP(=O)(O)Cc3cn(CCNP(=O)(O)OC[C@H]4O[C@@H](n5cnc6c(=O)[nH]c(N)nc65)C(O)C4O)nn3)C(O)C2O)c2nc(N)[nH]c(=O)c21 (stereo partly shown) [m^7GpppCH2tC2H4NHpG, m^7GpppCH2-triazole-C2H4NHpG]
- Capping efficiency [1]: 44%
- Translation efficiency [2]: 0.94 ± 0.11
- KAS [4]: 18.21 ± 0.72 µM⁻¹
- hydrolysis in D2O [5]: 9%

Molecule: Cn1c[n+]([C@@H]2O[C@H](COP(=O)(O)OP(=O)([O-])OP(=O)(O)OC[C@H]3O[C@@H](n4cnc5c(=O)[nH]c(N)nc54)[C@H](O)[C@@H]3O)[C@@H](O)[C@H]2O)c2nc(N)[nH]c(=O)c21 [m^7GpppG, reference compound]
- Capping efficiency [1]: 90%
- Translation efficiency [2]: 1
- KAS [3]: 12.5 ± 0.3^43 μM^−1

Molecule: C[n+]1cn([C@@H]2O[C@H](COP(=O)(O)OP(=O)(O)OP(=O)([O-])c3cn(CCNP(=O)(O)OC[C@H]4O[C@@H](n5cnc6c(=O)[nH]c(N)nc65)C(O)C4O)nn3)C(O)C2O)c2nc(N)[nH]c(=O)c21 (stereo partly shown) [m^7GppptC2H4NHpG, m^7Gppp-triazole-C2H4NHpG]
- Capping efficiency [1]: 52%
- Translation efficiency [2]: 0.89 ± 0.11
- KAS [4]: 21.94 ± 0.69 µM⁻¹
- hydrolysis in D2O [5]: 13%

Molecule: m2^7,2′-OGppp-triazole-C2H4NHpG [m2^7,2′-OGppptC2H4NHpG]
- Capping efficiency [1]: 41%
- Translation efficiency [2]: 1.462 ± 0.182
- hydrolysis in D2O [5]: 8%
